# Test results taken from BindingDB's records for doi:10.1016/j.chembiol.2007.10.017 (University of California Irvine, 2007).
# Biological target: T1, Monoglyceride lipase (Rattus norvegicus, UniProt Q8R431)
# T1 sequence (Q8R431 whole entry): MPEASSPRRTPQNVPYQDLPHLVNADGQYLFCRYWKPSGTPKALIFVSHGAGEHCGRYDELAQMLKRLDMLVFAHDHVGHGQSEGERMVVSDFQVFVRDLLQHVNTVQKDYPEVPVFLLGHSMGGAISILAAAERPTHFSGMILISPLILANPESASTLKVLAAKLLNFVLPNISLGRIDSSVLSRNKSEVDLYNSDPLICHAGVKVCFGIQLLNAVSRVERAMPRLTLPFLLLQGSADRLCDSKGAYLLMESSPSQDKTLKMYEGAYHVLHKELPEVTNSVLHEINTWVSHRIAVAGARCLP
# Test: Inhibition Assay
# Conditions: pH 8
# Source text: The measurement of the ability of URB602 compound to inhibit MGL activity.
row,Structure (SMILES),IC50
1,"O=C(NCCCCCc1ccccc1)OC1CCCCC1 [URB602, 3a]",> 300 µM
2,"O=C(Nc1ccccc1)OC1CCCCC1 [URB602, 3b]",> 300 µM
3,"O=C(Nc1cccc(-c2ccccc2)c1)OCCCCCc1ccccc1 [URB602, 3c]",> 300 µM
4,"Cc1cccc(-c2cccc(NC(=O)OC3CCCCC3)c2)c1 [URB602, 3d]",> 300 µM
5,"O=C(Nc1cccc(-c2cccc(C(F)(F)F)c2)c1)OC1CCCCC1 [URB602, 3e]",> 300 µM
6,"O=C(Nc1cccc(Oc2cccc(-c3ccccc3)c2)c1)OC1CCCCC1 [URB602, 3f]",> 300 µM
7,"O=C(Nc1ccccc1-c1ccccc1)OC1CCCCC1 [URB602, 3g]",> 300 µM
8,"O=C(Nc1cccc(-c2ccccc2)c1)OCC(O)CO (centres undefined) [URB602, 3h]",> 300 µM
9,"CC1(C)OCC(OC(=O)Nc2cccc(-c3ccccc3)c2)CO1 [URB602, 3i]",> 300 µM
10,"O=C(Nc1cccc(-c2ccccc2)c1)Oc1cccc(-c2ccccc2)c1 [URB602, 3j]",> 300 µM
11,"O=C(Nc1ccc(-c2ccccc2)cc1)OC1CCCCC1 [URB602, 3k]",> 300 µM
12,"O=C(Nc1cccc(-c2ccccc2)c1)Oc1ccccc1 [URB602, 3l]",243 µM
13,"Cc1cccc(-c2cccc(NC(=O)OC(CO)CO)c2)c1 [URB602, 3m]",> 300 µM
14,"O=C(Nc1cccc(-c2ccccc2)c1)OC(CO)CO [URB602, 3n]",> 300 µM
15,"CN(C(=O)OC1CCCCC1)c1cccc(-c2ccccc2)c1 [URB602, 3o]",> 300 µM
16,"O=C(Nc1cccc(-c2ccccc2)c1)NC1CCCCC1 [URB602, 4a]",115 µM
17,"O=C(CC1CCCCC1)Nc1cccc(-c2ccccc2)c1 [URB602, 5]",> 300 µM
18,"O=C(Nc1cccc(-c2ccccc2)c1)SC1CCCCC1 [URB602, 6]",> 300 µM
19,O=C(Nc1cccc(-c2ccccc2)c1)OC1CCCCC1 [cyclohexyl biphenyl-3-ylcarbamate],223 µM
